Experimental data reported in patent US5698522A, “6-position modified decapeptide LHRH antagonists” (Abbott Laboratories, priority 1995, dated 1997).
Where a SMILES comes first, the peptide text is derived from it. Side-chain parts run from the residue outwards. [ ]: non-standard residue; d: D form. The star is where a group is joined. Quinoline4carbonyl = O=C(c1ccnc2ccccc12)*; dPhe(4-Cl) = N[C@H](Cc1ccc(Cl)cc1)C(=O)O; d2Nal = N[C@H](Cc1ccc2ccccc2c1)C(=O)O; Lys(iPr) = CC(C)NCCCC[C@H](N)C(=O)O; NMeY = CN[C@@H](Cc1ccc(O)cc1)C(=O)O; Pyrazinecarbonyl = O=C(c1cnccn1)*; d3Pal = N[C@H](Cc1cccnc1)C(=O)O; Nicotinoyl = O=C(c1cccnc1)*; dOrn = NCCC[C@@H](N)C(=O)O; 2Furoyl = O=C(c1ccco1)*; Propionyl = CCC(=O)*; X2 = O=C(c1ccoc1)*; GABA = NCCCC(=O)O; azaGly = NNC(=O)O; βAla = NCCC(=O)O

biological target: T1, LHRH receptor (Rattus norvegicus, UniProt P30969); experiment: in vitro LHRH antagonist potency (pA2) against the agonist leuprolide; assay type: cell-based; settings: negative logarithm of the antagonist concentration which shifts the response curve produced by the agonist leuprolide to two-fold higher concentration
T1 construct: endogenous in cells
T1 sequence (P30969 1-327): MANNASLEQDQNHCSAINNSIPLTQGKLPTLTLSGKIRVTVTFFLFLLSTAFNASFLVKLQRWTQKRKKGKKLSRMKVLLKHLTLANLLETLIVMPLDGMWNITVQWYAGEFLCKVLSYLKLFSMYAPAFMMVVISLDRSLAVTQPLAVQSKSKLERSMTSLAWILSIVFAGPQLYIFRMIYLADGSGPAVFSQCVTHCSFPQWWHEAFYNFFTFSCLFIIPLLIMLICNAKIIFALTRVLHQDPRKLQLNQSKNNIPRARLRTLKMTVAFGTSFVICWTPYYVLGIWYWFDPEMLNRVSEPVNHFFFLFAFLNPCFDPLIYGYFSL
Outline: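 Functional antagonism against the agonist leuprolide. pA2 is the negative log of antagonist concentration that shifts the leuprolide response curve to twofold higher concentration.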

| Compound | Kb |
| --- | --- |
| CC(=O)N[C@H](Cc1ccc2ccccc2c1)C(=O)N[C@H](Cc1ccc(Cl)cc1)C(=O)N[C@H](Cc1cccnc1)C(=O)N[C@@H](CO)C(=O)N(C)[C@@H](Cc1ccc(O)cc1)C(=O)N[C@H](CCCCNC(=O)CNC(=O)c1ccoc1)C(=O)N[C@@H](CC(C)C)C(=O)N[C@@H](CCCNC(=N)N)C(=O)N1CCC[C@H]1C(=O)N[C@H](C)C(N)=O [Example 51a, NAc-D2Nal^1 -D4ClPhe^2 -D3Pal^3 -Ser^4 -NMeTyr^5 -DLys(N-epsilon-Gly-3-Furoyl)^6 -Leu^7 -Arg^8 -Pro^9 -DAla^1 -NH2] (Ac-[d2Nal][dPhe(4-Cl)][d3Pal]S[NMeY][dK]([Gly-X2])LRP[dA]-NH2) | 0.011 nM |
| CC(=O)N[C@H](Cc1ccc2ccccc2c1)C(=O)N[C@H](Cc1ccc(Cl)cc1)C(=O)N[C@H](Cc1cccnc1)C(=O)N[C@@H](CO)C(=O)N(C)[C@@H](Cc1ccc(O)cc1)C(=O)N[C@H](CCCCNC(=O)CNC(=O)c1ccnc2ccccc12)C(=O)N[C@@H](CC(C)C)C(=O)N[C@@H](CCCNC(=N)N)C(=O)N1CCC[C@H]1C(=O)N[C@H](C)C(N)=O [Example 51d, NAc-D2Nal^1 -D4ClPhe^2 -D3Pal^3 -Ser^4 -NMeTyr^6 -DLys(N-epsilon-Gly-4-Quinolinyl)^6 -Leu^7 -Arg^8 -Pro^9 -DAla^10 NH2] (Ac-[d2Nal][dPhe(4-Cl)][d3Pal]S[NMeY][dK]([Gly-Quinoline4carbonyl])LRP[dA]-NH2) | 0.0141 nM |
| CC(=O)N[C@H](Cc1ccc2ccccc2c1)C(=O)N[C@H](Cc1ccc(Cl)cc1)C(=O)N[C@H](Cc1cccnc1)C(=O)N[C@@H](CO)C(=O)N(C)[C@@H](Cc1ccc(O)cc1)C(=O)N[C@H](CCCCNC(=O)CNC(=O)c1cnccn1)C(=O)N[C@@H](CC(C)C)C(=O)N[C@@H](CCCNC(=N)N)C(=O)N1CCC[C@H]1C(=O)N[C@H](C)C(N)=O [Example 51e, NAc-D2Nal^1 -D4ClPhe^2 -D3Pal^3 -Ser^4 -NMeTyr^6 -DLys(N-epsilon-Gly-2-Pyrazinecarbonyl)^6 -Leu^7 -Arg^8 -Pro^9 -DAla^10 NH2] (Ac-[d2Nal][dPhe(4-Cl)][d3Pal]S[NMeY][dK]([Gly-Pyrazinecarbonyl])LRP[dA]-NH2) | 0.00692 nM |
| CC(=O)N[C@H](Cc1ccc2ccccc2c1)C(=O)N[C@H](Cc1ccc(Cl)cc1)C(=O)N[C@H](Cc1cccnc1)C(=O)N[C@@H](CO)C(=O)N(C)[C@@H](Cc1ccc(O)cc1)C(=O)N[C@H](CCCNC(=O)NNC(=O)c1ccco1)C(=O)N[C@@H](CC(C)C)C(=O)N[C@@H](CCCCNC(C)C)C(=O)N1CCC[C@H]1C(=O)N[C@H](C)C(N)=O [Example 52, NAc-D2-Nal^1 -D4ClPhe^2 -D3Pal^3 -Ser^4 -NMeTyr^5 -DOrn(N-epsilon-Azagly-2-Furoyl)^6 -Leu^7 -Lys(N-epsilon-Isopropyl)^8 -Pro^9 -DAla^10 NH2] (Ac-[d2Nal][dPhe(4-Cl)][d3Pal]S[NMeY][dOrn]([azaGly-2Furoyl])L[Lys(iPr)]P[dA]-NH2) | 0.0155 nM |
| CC(=O)N[C@H](Cc1ccc2ccccc2c1)C(=O)N[C@H](Cc1ccc(Cl)cc1)C(=O)N[C@H](Cc1cccnc1)C(=O)N[C@@H](CO)C(=O)N(C)[C@@H](Cc1ccc(O)cc1)C(=O)N[C@H](CCCNC(=O)NNC(=O)c1cccnc1)C(=O)N[C@@H](CC(C)C)C(=O)N[C@@H](CCCCNC(C)C)C(=O)N1CCC[C@H]1C(=O)N[C@H](C)C(N)=O [Example 53a, NAc-D2Nal^1 -D4ClPhe^2 -D3Pal^3 -Ser^4 -NMeTyr^5 -DOrn(N-epsilon-Azagly-Nicotinyl)^6 -Leu^7 -Lys(N-epsilon-Isopropyl)^8 -Pro^9 -DAla^10 NH2] (Ac-[d2Nal][dPhe(4-Cl)][d3Pal]S[NMeY][dOrn]([azaGly-Nicotinoyl])L[Lys(iPr)]P[dA]-NH2) | 0.0331 nM |
| CC(=O)N[C@H](Cc1ccc2ccccc2c1)C(=O)N[C@H](Cc1ccc(Cl)cc1)C(=O)N[C@H](Cc1cccnc1)C(=O)N[C@@H](CO)C(=O)N(C)[C@@H](Cc1ccc(O)cc1)C(=O)N[C@H](CCCNC(=O)CNC(=O)c1cccnc1)C(=O)N[C@@H](CC(C)C)C(=O)N[C@@H](CCCCNC(C)C)C(=O)N1CCC[C@H]1C(=O)N[C@H](C)C(N)=O [Example 54, NAc-D2Nal^1 -D4ClPhe^2 -D3Pal^3 -Ser^4 -NMeTyr^5 -DOrn(N-epsilon-Gly-Nicotinyl)^6 -Leu^7 -Lys(N-epsilon-Isopropyl)^8 -Pro^9 -DAla^10 NH2] (Ac-[d2Nal][dPhe(4-Cl)][d3Pal]S[NMeY][dOrn]([Gly-Nicotinoyl])L[Lys(iPr)]P[dA]-NH2) | 0.0302 nM |
| CC(=O)N[C@H](Cc1ccc2ccccc2c1)C(=O)N[C@H](Cc1ccc(Cl)cc1)C(=O)N[C@H](Cc1cccnc1)C(=O)N[C@@H](CO)C(=O)N(C)[C@@H](Cc1ccc(O)cc1)C(=O)N[C@H](CCCCNC(=O)CNC(=O)CNC(=O)c1ccco1)C(=O)N[C@@H](CC(C)C)C(=O)N[C@@H](CCCCNC(C)C)C(=O)N1CCC[C@H]1C(=O)N[C@H](C)C(N)=O [Example 57a, NAcD2Nal^1 -D4ClPhe^2 -D3Pal^3 -Ser^4 -NMeTyr^5 -DLys(N-epsilon-Gly-Gly-furoyl)^6 -Leu^7 -Lys(Isp)^8 -Pro^9 -DAla^10 NH2] (Ac-[d2Nal][dPhe(4-Cl)][d3Pal]S[NMeY][dK]([Gly-Gly-2Furoyl])L[Lys(iPr)]P[dA]-NH2) | 0.0145 nM |
| CC(=O)N[C@H](Cc1ccc2ccccc2c1)C(=O)N[C@H](Cc1ccc(Cl)cc1)C(=O)N[C@H](Cc1cccnc1)C(=O)N[C@@H](CO)C(=O)N(C)[C@@H](Cc1ccc(O)cc1)C(=O)N[C@H](CCCCNC(=O)CCNC(=O)CNC(=O)c1ccco1)C(=O)N[C@@H](CC(C)C)C(=O)N[C@@H](CCCCNC(C)C)C(=O)N1CCC[C@H]1C(=O)N[C@H](C)C(N)=O [Example 57c, NAc-D2Nal^1 -D4ClPhe^2 -D3Pal^3 -Ser^4 -NMeTyr^5 -DLys(N-epsilon-beta-alanyl-glycyl-furoyl)^6 -Leu^7 -Lys(Isp)^8 -Pro^9 -DAla^10 NH2] (Ac-[d2Nal][dPhe(4-Cl)][d3Pal]S[NMeY][dK]([βAla-Gly-2Furoyl])L[Lys(iPr)]P[dA]-NH2) | 0.0186 nM |
| CC(=O)N[C@H](Cc1ccc2ccccc2c1)C(=O)N[C@H](Cc1ccc(Cl)cc1)C(=O)N[C@H](Cc1cccnc1)C(=O)N[C@@H](CO)C(=O)N(C)[C@@H](Cc1ccc(O)cc1)C(=O)N[C@H](CCCCNC(=O)CCCNC(=O)CNC(=O)c1ccco1)C(=O)N[C@@H](CC(C)C)C(=O)N[C@@H](CCCCNC(C)C)C(=O)N1CCC[C@H]1C(=O)N[C@H](C)C(N)=O [Example 57e, NAc-D2Nal^1 -D4ClPhe^2 -D3Pal^3 -Ser^4 -NMeTyr^5 -DLys(N-epsilon-4-aminobutyryl-glycyl-furoyl)^6 -Leu^7 -Lys(Isp)^8 -Pro^9 -DAla^10 NH2] (Ac-[d2Nal][dPhe(4-Cl)][d3Pal]S[NMeY][dK]([GABA-Gly-2Furoyl])L[Lys(iPr)]P[dA]-NH2) | 0.012 nM |
| CCC(=O)NNC(=O)NCCCC[C@@H](NC(=O)[C@H](Cc1ccc(O)cc1)N(C)C(=O)[C@H](CO)NC(=O)[C@@H](Cc1cccnc1)NC(=O)[C@@H](Cc1ccc(Cl)cc1)NC(=O)[C@@H](Cc1ccc2ccccc2c1)NC(C)=O)C(=O)N[C@@H](CC(C)C)C(=O)N[C@@H](CCCCNC(C)C)C(=O)N1CCC[C@H]1C(=O)N[C@H](C)C(N)=O [Example 58, NAc-D2Nal^1 -D4ClPhe^2 -D3Pal^3 -Ser^4 -NMeTyr^5 -DLys(N-epsilon-Azagly-Propionyl)^6 -Leu^7 -Lys(N-epsilon-Isopropyl)^8 -Pro^9 -DAla^10 NH2] (Ac-[d2Nal][dPhe(4-Cl)][d3Pal]S[NMeY][dK]([azaGly-Propionyl])L[Lys(iPr)]P[dA]-NH2) | 0.0257 nM |
